Experimental data as given in patent publication US6599940B2, “Synthesis of 2-hydroxymethylglutamic acid and congeners thereof” (Georgetown University, priority 2000, dated 2003).

What was measured:
Details in all cases: result in words, no method or number given
mGluR2 = mGluR2 (Homo sapiens, UniProt Q14416); experiment: Antagonist activity at mGluR2
Group 3 mGluRs = experiment: Effect on Group 3 mGluRs
mGluR3 = mGluR3 (Homo sapiens, UniProt Q14832); experiment: Agonist activity at the Group 2 receptor mGluR3
Group 1 mGluRs = experiment: Effect on Group 1 mGluRs

mGluR3, sequence (Q14832 23-879): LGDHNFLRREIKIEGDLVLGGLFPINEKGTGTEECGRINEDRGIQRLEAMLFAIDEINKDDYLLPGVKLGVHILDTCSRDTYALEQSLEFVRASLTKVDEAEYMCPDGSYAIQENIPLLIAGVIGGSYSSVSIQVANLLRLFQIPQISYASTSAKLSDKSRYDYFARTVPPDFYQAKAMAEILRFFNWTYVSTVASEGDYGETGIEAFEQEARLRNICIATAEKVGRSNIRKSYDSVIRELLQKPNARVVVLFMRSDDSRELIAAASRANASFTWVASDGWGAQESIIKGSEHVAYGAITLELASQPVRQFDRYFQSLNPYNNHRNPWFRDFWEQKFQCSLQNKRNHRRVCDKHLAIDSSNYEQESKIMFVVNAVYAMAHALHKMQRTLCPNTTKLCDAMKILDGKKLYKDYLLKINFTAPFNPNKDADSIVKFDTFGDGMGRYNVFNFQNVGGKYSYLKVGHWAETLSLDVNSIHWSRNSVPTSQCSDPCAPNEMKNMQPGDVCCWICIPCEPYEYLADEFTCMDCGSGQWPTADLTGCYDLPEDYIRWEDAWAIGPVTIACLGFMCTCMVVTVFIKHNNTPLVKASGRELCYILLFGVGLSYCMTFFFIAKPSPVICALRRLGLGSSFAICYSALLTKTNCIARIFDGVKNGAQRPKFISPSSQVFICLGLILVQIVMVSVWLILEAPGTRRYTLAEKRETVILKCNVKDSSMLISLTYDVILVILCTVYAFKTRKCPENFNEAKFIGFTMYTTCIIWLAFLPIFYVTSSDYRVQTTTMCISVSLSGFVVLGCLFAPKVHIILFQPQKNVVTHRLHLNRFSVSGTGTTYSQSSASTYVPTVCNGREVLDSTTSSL
mGluR2, sequence (Q14416 19-872): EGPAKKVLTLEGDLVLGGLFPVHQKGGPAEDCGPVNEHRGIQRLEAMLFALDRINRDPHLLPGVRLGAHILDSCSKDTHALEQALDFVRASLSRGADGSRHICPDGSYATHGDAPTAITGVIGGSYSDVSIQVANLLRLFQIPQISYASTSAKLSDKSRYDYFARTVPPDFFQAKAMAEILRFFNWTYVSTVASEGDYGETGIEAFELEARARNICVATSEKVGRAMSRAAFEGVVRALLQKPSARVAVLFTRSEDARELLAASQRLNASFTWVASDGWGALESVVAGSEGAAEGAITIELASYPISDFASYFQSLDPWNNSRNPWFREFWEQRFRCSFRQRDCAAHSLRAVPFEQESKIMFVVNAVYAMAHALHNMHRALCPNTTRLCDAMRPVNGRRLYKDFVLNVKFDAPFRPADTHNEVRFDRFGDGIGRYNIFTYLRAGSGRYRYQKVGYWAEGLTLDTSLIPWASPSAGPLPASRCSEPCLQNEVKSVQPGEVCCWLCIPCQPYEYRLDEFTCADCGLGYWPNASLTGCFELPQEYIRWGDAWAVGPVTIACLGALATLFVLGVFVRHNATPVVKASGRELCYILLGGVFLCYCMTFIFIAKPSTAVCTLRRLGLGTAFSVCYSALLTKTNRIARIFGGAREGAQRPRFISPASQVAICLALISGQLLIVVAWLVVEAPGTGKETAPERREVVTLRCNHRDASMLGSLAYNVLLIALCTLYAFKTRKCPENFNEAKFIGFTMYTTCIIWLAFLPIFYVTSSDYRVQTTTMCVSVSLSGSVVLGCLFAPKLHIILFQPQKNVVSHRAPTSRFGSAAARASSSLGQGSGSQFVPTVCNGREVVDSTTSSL

SMILES: N[C@@](CO)(CCC(=O)O)C(=O)O [Compound 1, (R)-2(Hydroxymethyl)glutamic acid]
- activity at mGluR2 (mGluR2): weak antagonist
- effect on the Group 3 mGluRs (Group 3 mGluRs): little or no effect
- activity at the Group 2 receptor mGluR3 (mGluR3): relatively potent agonist
- effect on the Group 1 mGluRs (Group 1 mGluRs): little or no effect
